Our source for the IC50 values is patent publication US20230391786A1, “cGAS INHIBITORS” (Eli Lilly and Company, priority 2022, published 2023).

For orientation: IC50 means the midpoint of a concentration-inhibition curve.

For the first test, the target named is recombinant human cGAS (Homo sapiens (Human), UniProt Q8N884). The test is described as follows: In vitro inhibition assay of cGAS activity (cGAMP production, RapidFire mass spectrometry). The format is biochemical. Particulars: 10 nM recombinant human cGAS, 60 nM 75-bp dsDNA, ATP, GTP, room temperature 3 hours, read-out: IC50 (μM), In vitro inhibition assay for Compounds 1-94. The essentials: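 Full-length His6-tagged human cGAS (10 nM, E. coli-expressed) was incubated 3 h at room temperature with 60 nM 75-bp dsDNA, ATP, 50 μM GTP and compound at pH 7.5 with 5 mM MgCl2. cGAMP formation was measured by RapidFire mass spectrometry, and IC50 was taken from a 4-parameter logistic fit.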
Chain of recombinant human cGAS (Q8N884 whole entry): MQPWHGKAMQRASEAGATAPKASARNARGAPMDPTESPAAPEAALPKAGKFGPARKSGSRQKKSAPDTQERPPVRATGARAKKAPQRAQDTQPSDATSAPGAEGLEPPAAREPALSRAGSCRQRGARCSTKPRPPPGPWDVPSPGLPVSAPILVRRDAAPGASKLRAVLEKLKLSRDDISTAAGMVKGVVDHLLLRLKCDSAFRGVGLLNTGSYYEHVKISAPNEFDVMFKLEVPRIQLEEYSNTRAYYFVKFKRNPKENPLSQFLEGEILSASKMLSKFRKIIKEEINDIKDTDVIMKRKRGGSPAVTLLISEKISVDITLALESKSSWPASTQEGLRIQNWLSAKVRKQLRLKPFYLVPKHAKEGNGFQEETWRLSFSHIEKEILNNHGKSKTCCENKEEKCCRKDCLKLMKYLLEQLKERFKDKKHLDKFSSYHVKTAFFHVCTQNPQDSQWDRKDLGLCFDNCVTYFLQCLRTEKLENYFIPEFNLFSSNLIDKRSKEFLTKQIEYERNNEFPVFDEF
For the molecule `OC1CCc2c(-c3cn[nH]c3)c3ccc(Cl)c(Cl)c3n2C1` (single isomer, unassigned) [Example 19, 3,4-Dichloro-10-(1H-pyrazol-4-yl)-6,7,8,9-tetrahydropyrido[1,2-a]indol-7-ol], the IC50 worked out at 0.0663 µM.
On the same count and under the same terms, to `N#CCOc1cc(Cl)c(F)c2[nH]cc(-c3cn[nH]c3)c12` [Example 70, 2-[[6-Chloro-7-fluoro-3-(1H-pyrazol-4-yl)-1H-indol-4-yl]oxy] acetonitrile] belongs 0.0173 µM; to `CC(=O)N1CCn2c(c(-c3cn[nH]c3)c3ccc(Cl)c(Cl)c32)C1` [Example 38, 1-[6,7-Dichloro-10-(1H-pyrazol-4-yl)-3,4-dihydro-1H-pyrazino[1,2-a]indol-2-yl]ethanone], 0.0404 µM; to `OCCNc1cc(Cl)c(Cl)c2[nH]cc(-c3cn[nH]c3)c12` [Example 62, 2-[[6,7-Dichloro-3-(1H-pyrazol-4-yl)-1H-indol-4-yl]amino]ethanol], 0.0151 µM.
In the case of `CN(C)C(=O)CCC(=O)N1CCn2c(c(-c3cn[nH]c3)c3ccc(Cl)c(Cl)c32)C1` [Example 44, 4-[6,7-dichloro-10-(1H-pyrazol-4-yl)-3,4-dihydro-1H-pyrazino[1,2-a]indol-2-yl]-N,N-dimethyl-4-oxo-butanamide], the IC50 stood at 0.0534 µM.
Regarding `Cc1nnc(NCc2[nH]c3c(Cl)c(Cl)ccc3c2-c2cn[nH]c2)s1` [Example 11, N-[[6,7-Dichloro-3-(1H-pyrazol-4-yl)-1H-indol-2-yl]methyl]-5-methyl-1,3,4-thiadiazol-2-amine], the IC50 turned out to be 0.0423 µM.
Same read-out and setting: to `NCCN1CCn2c(c(-c3cn[nH]c3)c3ccc(Cl)c(Cl)c32)C1=O` [Example 33, 2-(2-Aminoethyl)-6,7-dichloro-10-(1H-pyrazol-4-yl)-3,4-dihydropyrazino[1,2-a]indol-1-one] belongs 0.0825 µM; to `O=C1Cn2c(c(-c3cn[nH]c3)c3ccc(Cl)c(Cl)c32)CCN1` [Example 7, 7,8-Dichloro-11-(1H-pyrazol-4-yl)-1,2,3,5-tetrahydro-[1,4]diazepino[1,7-a]indol-4-one], 0.0436 µM.
For `Cn1cnnc1NCc1[nH]c2c(Cl)c(Cl)ccc2c1-c1cn[nH]c1` [Example 12, N-[[6,7-Dichloro-3-(1H-pyrazol-4-yl)-1H-indol-2-yl]methyl]-4-methyl-1,2,4-triazol-3-amine], the IC50 amounted to 0.0649 µM.
The same measure, in the same setting: to `OCCC1CCc2c(-c3cn[nH]c3)c3ccc(Cl)c(Cl)c3n2C1` (stereo not shown) [Example 73, 2-[3,4-Dichloro-10-(1H-pyrazol-4-yl)-6,7,8,9-tetrahydropyrido[1,2-a]indol-7-yl] ethanol] belongs 0.062 µM; to `CC(=O)NCc1[nH]c2c(Cl)c(Cl)ccc2c1-c1cn[nH]c1` [Example 5, N-[[6,7-Dichloro-3-(1H-pyrazol-4-yl)-1H-indol-2-yl]methyl]acetamide], 0.0246 µM.
On the same count and under the same terms, to `CC(=O)N(C)CC(=O)N1CCn2c(c(-c3cn[nH]c3)c3ccc(Cl)c(Cl)c32)C1` [Example 52, N-[2-[6,7-dichloro-10-(1H-pyrazol-4-yl)-3,4-dihydro-1H-pyrazino[1,2-a]indol-2-yl]-2-oxo-ethyl]-N-methyl-acetamide] belongs 0.0975 µM; to `CN1CCn2c(c(-c3cn[nH]c3)c3c(NCCO)cc(Cl)c(Cl)c32)C1=O` [Example 87, 6,7-Dichloro-9-((2-hydroxyethyl)amino)-2-methyl-10-(1H-pyrazol-4-yl)-3,4-dihydropyrazino[1,2-a]indol-1(2H)-one], 0.029 µM; to `O=C1CCc2c(-c3cn[nH]c3)c3ccc(Cl)c(Cl)c3n2C1` [Example 17, 3,4-Dichloro-10-(1H-pyrazol-4-yl)-8,9-dihydro-6H-pyrido[1,2-a]indol-7-one], 0.0427 µM.
In the case of `O=C1Cn2c(c(-c3cn[nH]c3)c3ccc(Cl)c(Cl)c32)CN1CCO` [Example 76, 6,7-Dichloro-2-(2-hydroxyethyl)-10-(1H-pyrazol-4-yl)-1,2-dihydropyrazino[1,2-a]indol-3(4H)-one], the IC50 was found to be 0.0452 µM.
On the same count and under the same terms, to `CC(=O)NC1CCn2c1c(-c1cn[nH]c1)c1ccc(Cl)c(Cl)c12` (single isomer, unassigned) [Example 26, N-(5,6-Dichloro-9-(1H-pyrazol-4-yl)-2,3-dihydro-1H-pyrrolo[1,2-a]indol-1-yl)acetamide] belongs 0.0229 µM.
On the same count and under the same terms, to `OCCOc1cc(Cl)c(Cl)c2[nH]cc(-c3cn[nH]c3)c12` [Example 57, 2-((6,7-Dichloro-3-(1H-pyrazol-4-yl)-1H-indol-4-yl)oxy)ethanol] belongs 0.0352 µM; to `CN1CCn2c(c(-c3cn[nH]c3)c3c(OCC#N)cc(Cl)c(Cl)c32)C1=O` [Example 85, 2-((6,7-Dichloro-2-methyl-1-oxo-10-(1H-pyrazol-4-yl)-1,2,3,4-tetrahydropyrazino[1,2-a]indol-9-yl)oxy)acetonitrile], 0.0257 µM; to `O=C(CN1CCOC1=O)N1CCn2c(c(-c3cn[nH]c3)c3ccc(Cl)c(Cl)c32)C1` [Example 48], 0.0443 µM.
With `CC(=O)NC1CCc2c(-c3cn[nH]c3)c3ccc(Cl)c(Cl)c3n2C1` (single isomer, unassigned) [Example 20, N-[3,4-Dichloro-10-(1H-pyrazol-4-yl)-6,7,8,9-tetrahydropyrido[1,2-a]indol-7-yl]acetamide], the IC50 stood at 0.155 µM.
Take `CCOc1cc(Cl)c(Cl)c2c1c(-c1cn[nH]c1)c1n2CCN(C(=O)CO)C1` [Example 91, 1-[6,7-Dichloro-9-ethoxy-10-(1H-pyrazol-4-yl)-3,4-dihydro-1H-pyrazino[1,2-a]indol-2-yl]-2-hydroxy-ethanone]: the half-inhibitory concentration (IC50) stood at 0.0405 µM.
With `CC(=O)NC1CCn2c1c(-c1cn[nH]c1)c1ccc(Cl)c(Cl)c12` (single isomer, unassigned) [Example 27, N-(5,6-Dichloro-9-(1H-pyrazol-4-yl)-2,3-dihydro-1H-pyrrolo[1,2-a]indol-1-yl)acetamide], the IC50 was found to be 0.158 µM.
On the same count and under the same terms, to `O=C1Cn2c(c(-c3cn[nH]c3)c3ccc(Cl)c(Cl)c32)CN1` [Example 8, 6,7-Dichloro-10-(1H-pyrazol-4-yl)-2,4-dihydro-1H-pyrazino[1,2-a]indol-3-one] belongs 0.0531 µM.
For `O=C(Cn1cncn1)N1CCn2c(c(-c3cn[nH]c3)c3ccc(Cl)c(Cl)c32)C1` [Example 43, 1-[6,7-dichloro-10-(1H-pyrazol-4-yl)-3,4-dihydro-1H-pyrazino[1,2-a]indol-2-yl]-2-(1,2,4-triazol-1-yl)ethanone], the IC50 was 0.0912 µM.
Same read-out and setting: to `CC(=O)N1CCOC(CC(=O)N2CCn3c(c(-c4cn[nH]c4)c4ccc(Cl)c(Cl)c43)C2)C1` (stereo not shown) [Example 82, 2-(4-Acetylmorpholin-2-yl)-1-[6,7-dichloro-10-(1H-pyrazol-4-yl)-3,4-dihydro-1H-pyrazino[1,2-a]indol-2-yl]ethanone] belongs 0.046 µM.

Staying with this test, now noted: 10 nM recombinant human cGAS, 60 nM 75-bp dsDNA, ATP, GTP, room temperature 3 hours, read-out: IC50 (μM), In vitro inhibition assay for Compounds 95-348.
Turning to `Cc1noc(COCC(=O)N2CCn3c(c(-c4cn[nH]c4)c4ccc(Cl)c(Cl)c43)C2)n1` [Example 322, 1-(6,7-Dichloro-10-(1H-pyrazol-4-yl)-3,4-dihydropyrazino[1,2-a]indol-2(1H)-yl)-2-((3-methyl-1,2,4-oxadiazol-5-yl)methoxy)ethan-1-one], the IC50 was determined as 0.06 µM.
The same measure, in the same setting: to `CN1CC(=O)N(CC(=O)N2CCn3c(c(-c4cn[nH]c4)c4ccc(Cl)c(Cl)c43)C2)C1=O` [Example 311, 3-(2-(6,7-Dichloro-10-(1H-pyrazol-4-yl)-3,4-dihydropyrazino[1,2-a]indol-2(1H)-yl)-2-oxoethyl)-1-methylimidazolidine-2,4-dione] belongs 0.043 µM.
Regarding `CN1CC(C(=O)N2CCn3c(c(-c4cn[nH]c4)c4ccc(Cl)c(Cl)c43)C2)CC1=O` (stereo not shown) [Example 319, 4-(6,7-Dichloro-10-(1H-pyrazol-4-yl)-1,2,3,4-tetrahydropyrazino[1,2-a]indole-2-carbonyl)-1-methylpyrrolidin-2-one], the IC50 was found to be 0.0534 µM.
On to `O=C1CCCN1CC(=O)N1CCn2c(c(-c3cn[nH]c3)c3ccc(Cl)c(Cl)c32)C1` [Example 316, 1-(2-(6,7-Dichloro-10-(1H-pyrazol-4-yl)-3,4-dihydropyrazino[1,2-a]indol-2(1H)-yl)-2-oxoethyl)pyrrolidin-2-one], for which the IC50 came to 0.0509 µM.
On to `COCC(=O)N(C)CC(=O)N1CCn2c(c(-c3cn[nH]c3)c3ccc(Cl)c(Cl)c32)C1` [Example 318, N-(2-(6,7-Dichloro-10-(1H-pyrazol-4-yl)-3,4-dihydropyrazino[1,2-a]indol-2(1H)-yl)-2-oxoethyl)-2-methoxy-N-methylacetamide], for which the IC50 is 0.0524 µM.
On to `O=C1NC(C(=O)N2CCn3c(c(-c4cn[nH]c4)c4ccc(Cl)c(Cl)c43)C2)CCO1` (stereo not shown) [Example 314, 4-(6,7-Dichloro-10-(1H-pyrazol-4-yl)-1,2,3,4-tetrahydropyrazino[1,2-a]indole-2-carbonyl)-1,3-oxazinan-2-one], for which the IC50 worked out at 0.0491 µM.
Still for that read-out and setting: to `CCNC(=O)COCC(=O)N1CCn2c(c(-c3cn[nH]c3)c3ccc(Cl)c(Cl)c32)C1` [Example 179, 2-[2-[6,7-Dichloro-10-(1H-pyrazol-4-yl)-3,4-dihydro-1H-pyrazino[1,2-a]indol-2-yl]-2-oxo-ethoxy]-N-ethyl-acetamide] belongs 0.0585 µM; to `CC(=O)N1CC(C(=O)N2CCn3c(c(-c4cn[nH]c4)c4ccc(Cl)c(Cl)c43)C2)C1` [Example 321, 1-(3-(6,7-Dichloro-10-(1H-pyrazol-4-yl)-1,2,3,4-tetrahydropyrazino[1,2-a]indole-2-carbonyl)azetidin-1-yl)ethan-1-one], 0.0562 µM.
As to `CCS(=O)(=O)NCc1[nH]c2c(Cl)c(Cl)ccc2c1-c1cn[nH]c1` [Example 105, N-((6,7-Dichloro-3-(1H-pyrazol-4-yl)-1H-indol-2-yl)methyl)ethanesulfonamide], the IC50 amounted to 0.0712 µM.
